Results as given in patent publication US20250282785A1, “PYRROLIDINONE DERIVATIVES AS INHIBITORS OF NF KAPPA B INDUCING KINASE” (priority 2022, published 2025).
Like-named read-outs stand apart in the source and are kept apart here.

Tests used:
[1] = tested on: p-IKKα levels in L363 (NIK translocated multiple myeloma) cells; test: Effect of compounds on p-IKKα levels in L363 cells (AlphaLISA SureFire Ultra); assay type: cell-based; conditions: Homo sapiens, read-out: Assay 2 IC50
In short: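 L363 myeloma cells were BAFF-stimulated (250 ng/ml) overnight in DMEM/0.5% BSA, then exposed 6 h at 37° C to compound (11-point 1:3 series, 0.3% DMSO) with BAFF plus 10 uM MG132. p-IKKα (Ser 176/180) was read by AlphaLISA SureFire Ultra in lysates. IC50 came from sigmoidal fits normalized to stimulated and unstimulated controls.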

[2] = target: Recombinant Human NF-Kappab-Inducing Kinase (NIK/MAP3K14) (Homo sapiens, UniProt Q99558); test: Inhibition of auto-phosphorylation of recombinant human NIK/MAP3K14 (AlphaScreen); assay type: biochemical
Recombinant Human NF-Kappab-Inducing Kinase (NIK/MAP3K14), sequence (Q99558 whole entry): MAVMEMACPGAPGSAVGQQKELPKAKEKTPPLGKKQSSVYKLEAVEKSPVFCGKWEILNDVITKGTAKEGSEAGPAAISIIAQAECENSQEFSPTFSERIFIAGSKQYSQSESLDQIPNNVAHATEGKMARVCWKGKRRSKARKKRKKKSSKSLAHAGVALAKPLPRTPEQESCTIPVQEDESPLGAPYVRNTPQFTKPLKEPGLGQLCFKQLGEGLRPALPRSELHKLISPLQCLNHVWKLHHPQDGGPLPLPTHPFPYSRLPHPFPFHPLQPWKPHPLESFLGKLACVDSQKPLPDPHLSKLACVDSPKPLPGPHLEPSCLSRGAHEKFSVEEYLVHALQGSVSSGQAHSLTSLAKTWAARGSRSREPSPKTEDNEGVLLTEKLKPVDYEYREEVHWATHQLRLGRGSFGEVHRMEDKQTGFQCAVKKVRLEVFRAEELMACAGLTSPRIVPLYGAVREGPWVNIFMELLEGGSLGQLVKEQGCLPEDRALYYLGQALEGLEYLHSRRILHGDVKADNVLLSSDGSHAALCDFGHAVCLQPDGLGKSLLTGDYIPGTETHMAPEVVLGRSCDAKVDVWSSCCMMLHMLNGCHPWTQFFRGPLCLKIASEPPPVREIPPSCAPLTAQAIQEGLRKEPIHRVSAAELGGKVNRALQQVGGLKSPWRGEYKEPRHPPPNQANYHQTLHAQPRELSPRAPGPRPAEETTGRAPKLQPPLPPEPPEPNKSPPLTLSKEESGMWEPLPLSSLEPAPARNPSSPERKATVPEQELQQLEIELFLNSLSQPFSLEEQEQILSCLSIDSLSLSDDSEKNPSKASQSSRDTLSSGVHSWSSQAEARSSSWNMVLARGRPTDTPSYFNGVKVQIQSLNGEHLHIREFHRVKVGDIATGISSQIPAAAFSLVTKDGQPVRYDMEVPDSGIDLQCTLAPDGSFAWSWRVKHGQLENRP
In short: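 GST-tagged NIK (1 nM) auto-phosphorylation with 5 µM ATP in Tris pH 7.5/MgCl2 buffer, 0.7% DMSO, 2 h at 25 °C. Phospho-IKK Ser176/180 antibody detected by AlphaScreen beads. Signal normalized to full-enzyme and no-ATP controls; IC50 from sigmoidal fit of % inhibition vs log concentration.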

[3] = L-363, L363 cells, BAFF stimulated, MG132, 6 h, average of values
[4] = NIK/MAP3K14 auto-phosphorylation, 5 microM ATP, 1 nM enzyme, 2 h at 25° C., average of values, read-out: Assay 1 IC50

Structure (SMILES)	IC50 [1, 3] [nM]	IC50 [2, 4] [nM]	IC50 ([1]; L-363, 6 h) [nM]	IC50 [2] [nM]
CN1CC[C@@](O)(c2cc(-c3cccc(-c4cc5cn[nH]c5c(C(N)=O)n4)c3)no2)C1=O [Example 143, (R)-5-(3-(5-(3-hydroxy-1-methyl-2-oxopyrrolidin-3-yl)isoxazol-3-yl)phenyl)-1H-pyrazolo[3,4-c]pyridine-7-carboxamide]	< 100	< 100	–	–
CN1CC[C@@](O)(c2cc(-c3cccc(-c4cccc(C(N)=O)n4)c3)n(C)n2)C1=O (single isomer, unassigned) [Example 30]	> 501	> 501	–	–
CN1CC[C@@](O)(c2cc(-c3cccc(-c4nc(C(N)=O)c(C(F)F)s4)c3)no2)C1=O [Example 222, (R)-5-(Difluoromethyl)-2-(3-(5-(3-hydroxy-1-methyl-2-oxopyrrolidin-3-yl)isoxazol-3-yl)phenyl)thiazole-4-carboxamide]	100 to 500	< 100	–	–
CN1CC[C@@](O)(c2cc(-c3cccc(-c4ccc5cnn(C)c5n4)c3)no2)C1=O [Example 78, (R)-3-Hydroxy-1-methyl-3-(3-(3-(1-methyl-1H-pyrazolo[3,4-b]pyridin-6-yl)phenyl)isoxazol-5-yl)pyrrolidin-2-one]	> 501	100 to 500	–	–
CN1CC[C@](O)(c2ncc(-c3cccc(-c4cccc(C(N)=O)n4)c3)s2)C1=O (single isomer, unassigned) [Example 28]	> 501	100 to 500	–	–
CN1CC[C@@](O)(c2cc(-c3cccc(-c4nc(C(N)=O)n5ccccc45)c3)no2)C1=O [Example 23, (R)-1-(3-(5-(3-Hydroxy-1-methyl-2-oxopyrrolidin-3-yl)isoxazol-3-yl)phenyl)imidazo[1,5-a]pyridine-3-carboxamide]	< 100	< 100	–	–
CN1CC[C@@](O)(c2cc(-c3cccc(-c4nc(C(N)=O)cc(C(F)(F)F)n4)c3)no2)C1=O [Example 98, (R)-2-(3-(5-(3-Hydroxy-1-methyl-2-oxopyrrolidin-3-yl)isoxazol-3-yl)phenyl)-6-(trifluoromethyl)pyrimidine-4-carboxamide]	> 501	< 100	–	–
CN1CC[C@@](O)(c2cc(-c3cccc(-c4nc5c(c(C(N)=O)n4)[C@H]4CC[C@@H](C5)O4)c3)[nH]n2)C1=O [Example 173, (5R,8S)-2-(3-(5-((R)-3-Hydroxy-1-methyl-2-oxopyrrolidin-3-yl)-1H-pyrazol-3-yl)phenyl)-6,7,8,9-tetrahydro-5H-5,8-epoxycyclohepta[d]pyrimidine-4-carboxamide]	> 501	< 100	–	–
CN1CC[C@@](O)(c2cc(-c3cccc(-c4ccnc(N)c4)c3)no2)C1=O [Example 53, (R)-3-(3-(3-(2-Aminopyridin-4-yl)phenyl)isoxazol-5-yl)-3-hydroxy-1-methylpyrrolidin-2-one]	> 501	100 to 500	–	–
CN1CC[C@@](O)(c2cc(-c3cccc(-c4ncc(Nc5ccn(C)n5)c(C(N)=O)n4)c3)no2)C1=O [Example 130, (R)-2-(3-(5-(3-Hydroxy-1-methyl-2-oxopyrrolidin-3-yl)isoxazol-3-yl)phenyl)-5-((1-methyl-1H-pyrazol-3-yl)amino)pyrimidine-4-carboxamide]	< 100	< 100	–	–
COc1cc(-c2cccc(-c3cc([C@]4(O)CCN(C)C4=O)on3)c2)nc2c1c(C)nn2C [Example 230, (R)-3-Hydroxy-3-(3-(3-(4-methoxy-1,3-dimethyl-1H-pyrazolo[3,4-b]pyridin-6-yl)phenyl)isoxazol-5-yl)-1-methylpyrrolidin-2-one]	> 501	100 to 500	–	–
CN1CC[C@@](O)(c2cc(-c3cccc(-c4cccc5[nH]ccc45)c3)no2)C1=O [Example 77, (R)-3-(3-(3-(1H-Indol-4-yl)phenyl)isoxazol-5-yl)-3-hydroxy-1-methylpyrrolidin-2-one]	> 501	> 501	–	–
CC(C)Cc1sc(-c2cccc(-c3cc([C@]4(O)CCN(C)C4=O)on3)c2)nc1C(N)=O [Example 220, (R)-2-(3-(5-(3-Hydroxy-1-methyl-2-oxopyrrolidin-3-yl)isoxazol-3-yl)phenyl)-5-isobutylthiazole-4-carboxamide]	–	–	> 501	< 100
[2H]c1nc(N)c2nc(-c3cccc(-c4cnc([C@@]5(O)CCN(C)C5=O)s4)c3)ccc2n1 (single isomer, unassigned) [Example 32]	> 501	< 100	–	–
COc1ncc(-c2cccc(-c3cc([C@]4(O)CCN(C)C4=O)on3)c2)c(C(N)=O)n1 [Example 138, (R)-5-(3-(5-(3-Hydroxy-1-methyl-2-oxopyrrolidin-3-yl)isoxazol-3-yl)phenyl)-2-methoxypyrimidine-4-carboxamide]	> 501	> 501	–	–
CCn1nc(C(F)(F)F)cc1-c1cc(C(N)=O)nc(-c2cccc(-c3cc([C@]4(O)CCN(C)C4=O)on3)c2)c1 [Example 188, (R)-4-(1-Ethyl-3-(trifluoromethyl)-1H-pyrazol-5-yl)-6-(3-(5-(3-hydroxy-1-methyl-2-oxopyrrolidin-3-yl)isoxazol-3-yl)phenyl)picolinamide]	> 501	< 100	–	–
CN1CC[C@@](O)(c2cc(-c3cccc(-c4nc5c(c(C(N)=O)n4)C4CCC(C5)O4)c3)[nH]n2)C1=O (stereo in doubt) [Example 174, (5R,8S)-2-(3-(5-((R)-3-Hydroxy-1-methyl-2-oxopyrrolidin-3-yl)-1H-pyrazol-3-yl)phenyl)-6,7,8,9-tetrahydro-5H-5,8-epoxycyclohepta[d]pyrimidine-4-carboxamide]	> 501	100 to 500	–	–
CN1CC[C@@](O)(c2cc(-c3ccnc(-c4ccc(N)c(C(N)=O)n4)c3)no2)C1=O [Example 169, (R)-5-Amino-4′-(5-(3-hydroxy-1-methyl-2-oxopyrrolidin-3-yl)isoxazol-3-yl)-[2,2′-bipyridine]-6-carboxamide]	< 100	< 100	–	–
CN1CC[C@@](O)(c2cc(-c3cccc(-c4cc5[nH]cnc5c(C(N)=O)n4)c3)no2)C1=O [Example 97, (R)-6-(3-(5-(3-Hydroxy-1-methyl-2-oxopyrrolidin-3-yl)isoxazol-3-yl)phenyl)-1H-imidazo[4,5-c]pyridine-4-carboxamide]	100 to 500	< 100	–	–
CN1CC[C@@](O)(c2cc(-c3cccc(-c4csc(C(N)=O)n4)c3)no2)C1=O [Example 205, (R)-4-(3-(5-(3-Hydroxy-1-methyl-2-oxopyrrolidin-3-yl)isoxazol-3-yl)phenyl)thiazole-2-carboxamide]	> 501	< 100	–	–
CN1CC[C@@](O)(c2cc(-c3cccc(-c4cc5c(c(C(N)=O)n4)CCCC5)c3)no2)C1=O [Example 124, (R)-3-(3-(5-(3-Hydroxy-1-methyl-2-oxopyrrolidin-3-yl)isoxazol-3-yl)phenyl)-5,6,7,8-tetrahydroisoquinoline-1-carboxamide]	> 501	< 100	–	–
CN1CC[C@@](O)(c2cc(-c3cccc(-c4nc(C(N)=O)c(Nc5cnn(C)c5)s4)c3)no2)C1=O [Example 211, (R)-2-(3-(5-(3-Hydroxy-1-methyl-2-oxopyrrolidin-3-yl)isoxazol-3-yl)phenyl)-5-((1-methyl-1H-pyrazol-4-yl)amino)thiazole-4-carboxamide]	< 100	< 100	–	–
Cc1ncc(C#N)cc1Nc1sc(-c2cccc(-c3cc([C@]4(O)CCN(C)C4=O)on3)c2)nc1C(N)=O [Example 235, (R)-5-((5-Cyano-2-methylpyridin-3-yl)amino)-2-(3-(5-(3-hydroxy-1-methyl-2-oxopyrrolidin-3-yl)isoxazol-3-yl)phenyl)thiazole-4-carboxamide]	< 100	< 100	–	–
Cc1ccc(-c2cc([C@]3(O)CCN(C)C3=O)no2)cc1-c1nc2c(N)ncnc2s1 [Example 175, (R)-3-(5-(3-(7-Aminothiazolo[5,4-d]pyrimidin-2-yl)-4-methylphenyl)isoxazol-3-yl)-3-hydroxy-1-methylpyrrolidin-2-one]	> 501	< 100	–	–
CN1CC[C@@](O)(c2cc(-c3cccc(-c4ccc5[nH]ncc5n4)c3)no2)C1=O [Example 228, (R)-3-(3-(3-(1H-Pyrazolo[4,3-b]pyridin-5-yl)phenyl)isoxazol-5-yl)-3-hydroxy-1-methylpyrrolidin-2-one]	> 501	100 to 500	–	–
CN1CC[C@@](O)(c2cn(-c3cccc(-c4nc(C(N)=O)n5ccccc45)c3)nn2)C1=O [Example 15, (R)-1-(3-(4-(3-Hydroxy-1-methyl-2-oxopyrrolidin-3-yl)-1H-1,2,3-triazol-1-yl)phenyl)imidazo[1,5-a]pyridine-3-carboxamide]	< 100	< 100	–	–
CN1CC[C@@](O)(c2cc(-c3cccc(-c4cccc(C(N)=O)n4)c3)no2)C1=O [Example 148, (R)-6-(3-(5-(3-Hydroxy-1-methyl-2-oxopyrrolidin-3-yl)isoxazol-3-yl)phenyl)picolinamide]	> 501	< 100	–	–
COc1ncc(-c2cc(C(N)=O)nc(-c3cccc(-c4cc([C@]5(O)CCN(C)C5=O)on4)c3)c2)s1 [Example 191, (R)-6-(3-(5-(3-Hydroxy-1-methyl-2-oxopyrrolidin-3-yl)isoxazol-3-yl)phenyl)-4-(2-methoxythiazol-5-yl)picolinamide]	100 to 500	< 100	–	–
